Assay results: patent publication US20250034135A1, “ANTI-APOPTOTIC PROTEIN BCL-2 INHIBITOR, PHARMACEUTICAL COMPOSITION AND USES THEREOF” (HANGZHOU HEALZEN THERAPEUTICS CO., LTD., priority 2021, published 2025)
Where two headings read alike, the source gives them in different places.

Legend:
[1] = target: BCL-XL (Homo sapiens (Human), UniProt Q07817); test: BCL-XL enzyme molecular level activity test (HTRF, binding to BIM peptide); conditions: binding of BCL-XL to BIM peptide, read-out: BCL-XL inhibitory activity (IC50)
Protocol: In a white shallow 384-well plate, a total reaction volume was 10 μL. Specifically, it included 2 μL of the compound to be tested (2% DMSO), […] His-tagged recombinant protein, and 4 μL Biotin-tagged BIM protein peptide. After 1 hour of reaction, 5 μL of each Anti-His and streptavidin-tagged XL665 antibody diluents diluted with a detection buffer were added. After incubating at room temperature for 4 hours, the values were read using the Envision multifunctional microplate reader to detect the effect of the compound to be tested on the binding ability of BCL-XL to BIM protein peptides. The Envision parameter settings were exciting light at 320 nm, and emitting light at 615 nm and 665 nm. The binding ability of anti-apoptotic proteins to Bim protein peptides was indirectly reflected by the signal ratio of 665 nm and 615 nm. In the reaction, background wells without BCL2 and active wells for full binding of recombinant proteins without compounds and Bim protein peptides were set up.

[2] = target: BCL2 (Homo sapiens (Human), UniProt P10415); test: Molecular level activity test of anti-apoptotic protein BCL2 (HTRF, binding to Bim peptide); conditions: HTRF, binding of BCL2 to Bim peptide; read-out: BCL2 nM (inhibitory activity, IC50)
Procedure, shortened: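 Competition binding format: recombinant His-BCL2 and a biotin-Bim peptide are incubated with compound for 1 h, followed by 4 h at room temperature with HTRF detection antibodies.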

[3] = target: BCL2 (D103Y) (Homo sapiens (Human), UniProt P10415, D103Y); test: Molecular level activity test of BCL2 (D103Y) (HTRF, binding to Bim peptide); conditions: read-out: BCL-2 (D103Y) (nM) (inhibitory activity, IC50)
Protocol: (§1) The detection of the binding ability between anti-apoptotic protein BCL2 (D103Y) and pro-apoptotic protein Bim was performed using Homogeneous Time-Resolved Fluorescence technology. The reaction of this method occurred in a white shallow 384-well plate, with a total reaction volume of 10 μL. Specifically, it included 2 μL of the compound to be tested (2% DMSO), 4 μL His-tagged recombinant protein, and 4 μL Biotin-tagged BIM protein peptide. After 1 hour of reaction, 5 μL of each Anti-His and streptavidin-tagged XL665 antibody diluents diluted with a detection buffer were added. After incubating at room temperature for 4 hours, the values were read using the Envision multifunctional microplate reader to detect the effect of the compound to be tested on the binding ability of BCL2 (D103Y) to BIM protein peptides.

[4] = target: BCL2 (G101V) (Homo sapiens (Human), UniProt P10415, G101V); test: Molecular level activity test of anti-apoptotic protein BCL2 (G101V) (HTRF, binding to Bim peptide); conditions: inhibition of BCL2 (G101V) binding to Bim peptide, read-out: BCL-2 (G101V)
Protocol: as §1, with “BCL2 (G101V)” for “BCL2 (D103Y)”, “[…]” for “5 μL”

[5] = test system: RS4; 11 cells; test: Tumor proliferation inhibitory activity test (MTS) on RS4; 11; assay type: cell-based; conditions: Homo sapiens, RS4-11, 72 h, 3 days incubation
Protocol: The cell proliferation inhibitory ability of the compounds on RS4; 11 was tested using the MTS method. MTS is a tetrazolium blue salt compound that can be reduced by various dehydrogenases in live cell mitochondria to their respective colored methylzan products. Its color depth is highly correlated with the number of live cells in certain sensitive cell lines within a certain range. RS4; 11, RS4; 11 (BCL-2-G101V) and MOLT-4 tumor cells were cultivated separately and collected, 180 μL of cell suspension was added to each well in a 96-well cell plate, 20 μL of DMSO with a final concentration of 0.2% was added to the control cell wells, 20 μL of gradient diluted compounds were added to cell wells, and the treated cells were incubated in a 5% CO2 incubator at 37° C. for 3 days. After the incubation was completed, the reaction solution was prepared according to the MTS reagent kit, 20 μL was added per well and incubated in a 5% CO2 incubator at 37° C. for 3-4 hours. The absorbance value at 490 nm was read using an enzyme-linked immunosorbent assay (ELISA) plate, and the absorbance value at 690 nm was used as the background value, with OD490 nm-OD690 nm as the final raw data. The formula for calculating the inhibition ratio of compounds was as follows: inhibition ratio=(ODDMSO−ODCompound)/(ODDMSO−ODblank)×100%.

Sequence of BCL-XL (Q07817 whole entry): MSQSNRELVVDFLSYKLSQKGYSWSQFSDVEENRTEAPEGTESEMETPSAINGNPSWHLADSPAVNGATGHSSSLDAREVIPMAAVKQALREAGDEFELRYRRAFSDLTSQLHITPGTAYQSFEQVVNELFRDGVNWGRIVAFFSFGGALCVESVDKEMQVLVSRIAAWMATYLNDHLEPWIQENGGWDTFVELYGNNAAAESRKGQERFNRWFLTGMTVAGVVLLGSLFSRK

Structure (SMILES)	IC50 ([1]; values given in μM)	IC50 [2]	IC50 [3]	IC50 [4]	IC50 [5]	IC50 ([1]; values in nM)
CC(C)c1ccccc1[C@@H]1CCCN1C1CC2(CCN(c3cc(Oc4cnc5[nH]ccc5c4)c(C(=O)NS(=O)(=O)c4cc([N+](=O)[O-])c(NCC5(F)CCN(C6COC6)CC5)c5[nH]cnc45)cn3)CC2)C1 [compound 019, (S)-4-((1H-pyrrolo[2,3-b]pyrid-5-yl)oxy)-N-((7-(((4-fluoro-1-(oxocyclobut-3-yl)piperid-4-yl)methyl)amino)-6-nitro-1H-benzo[d]imidazol-4-yl)sulfonyl)-6-(2-(2-(2-isopropylphenyl)pyrrolidin-1-yl)-7-azaspiro[3.5]non-7-yl) nicotinamide]	> 1 µM	< 10 nM	< 10 nM	< 10 nM	0.5 to 1 nM	
COc1ccc(CN2CCN(C3CC4(CCN(c5cc(Oc6cnc7[nH]cc(F)c7c6)c(C(=O)NS(=O)(=O)c6ccc(NC[C@H]7CC[C@](C)(O)CC7)c([N+](=O)[O-])c6)cc5F)CC4)C3)[C@H](c3ccccc3C(C)C)C2)cc1 [compound 235, 5-fluoro-2-((3-fluoro-1H-pyrrolo[2,3-b]pyrid-5-yl)oxy)-N-((4-((((1r, 4r)-4-hydroxy-4-methylcyclohexyl)methyl)amino)-3-nitrophenyl)sulfonyl)-4-(2-((R)-2-(2-isopropylphenyl)-4-(4-methoxybenzyl)piperazin-1-yl)-7-azaspiro[3.5]non-7-yl)benzamide]		< 10 nM	< 10 nM	< 10 nM	0.5 to 1 nM	
COc1ccc(CN2CCN(C3CC4(CCN(c5cc(Oc6cnc7[nH]ccc7c6)c(C(=O)NS(=O)(=O)c6ccc(NC[C@H]7CC[C@](C)(O)CC7)c([N+](=O)[O-])c6)cc5F)CC4)C3)[C@H](c3ccccc3C(C)C)C2)cn1 [compound 236, 2-((1H-pyrrolo[2,3-b]pyrid-5-yl)oxy)-5-fluoro-N-((4-((((1r, 4r)-4-hydroxy-4-methylcyclohexyl)methyl)amino)-3-nitrophenyl)sulfonyl)-4-(2-((R)-2-(2-isopropylphenyl)-4-((6-methoxypyrid-3-yl)methyl)piperazin-1-yl)-7-azaspiro[3.5]non-7-yl)benzamide]		< 10 nM	< 10 nM	< 10 nM	0.5 to 1 nM	> 0.5 µM
COc1ccc(CN2CCN(C3CC4(CCN(c5cc(Oc6cnc7[nH]ccc7c6)c(C(=O)NS(=O)(=O)c6ccc(NC[C@H]7CC[C@](C)(O)CC7)c([N+](=O)[O-])c6)cc5F)CC4)C3)[C@H](c3ccccc3C(C)C)C2)cc1OC [compound 237, 2-((1H-pyrrolo[2,3-b]pyrid-5-yl)oxy)-4-(2-((R)-4-(3,4-dimethoxybenzyl)-2-(2-isopropylphenyl)piperazin-1-yl)-7-azaspiro[3.5]non-7-yl)-5-fluoro-N-((4-((((1r, 4r)-4-hydroxy-4-methylcyclohexyl)methyl)amino)-3-nitrophenyl)sulfonyl)benzamide]		< 10 nM	< 10 nM	< 10 nM	0.5 to 1 nM	> 0.5 µM
CC(C)c1ccccc1[C@@H]1CN(Cc2cnn(C)c2)CCN1C1CC2(CCN(c3cc(Oc4cnc5[nH]ccc5c4)c(C(=O)NS(=O)(=O)c4ccc(NC[C@H]5CC[C@](C)(O)CC5)c([N+](=O)[O-])c4)cc3F)CC2)C1 [compound 238, 2-((1H-pyrrolo[2,3-b]pyrid-5-yl)oxy)-5-fluoro-N-((4-((((1r, 4r)-4-hydroxy-4-methylcyclohexyl)methyl)amino)-3-nitrophenyl)sulfonyl)-4-(2-((R)-2-(2-isopropylphenyl)-4-((1-methyl-1H-pyrazole-4-yl)methyl)piperazin-1-yl)-7-azaspiro[3.5]non-7-yl)benzamide]					0.5 to 1 nM	

Next, values leading:

IC50 ([1]; values given in μM)	IC50 [2]	IC50 [3]	IC50 [4]	IC50 [5]	IC50 ([1]; values in nM)	Structure (SMILES)
1.6 µM	< 10 nM	< 10 nM	< 10 nM	0.5 to 1 nM		COc1ccc(CN2CCN(C3CC4(CCN(c5cc(Oc6cnc7[nH]ccc7c6)c(C(=O)NS(=O)(=O)c6cc([N+](=O)[O-])c(NCC7CCOCC7)c7c6OCO7)cc5F)CC4)C3)[C@H](c3ccccc3C(C)C)C2)cc1 [compound 120, (R)-2-((1H-pyrrolo[2,3-b]pyrid-5-yl)oxy)-5-fluoro-4-(2-(2-(2-isopropylphenyl)-4-(4-methoxybenzyl)piperazin-1-yl)-7-azaspiro[3.5]non-7-yl)-N-((6-nitro-7-(((tetrahydro-2H-pyran-4-yl)methyl)amino)benzo[d][1,3]dioxocyclopent-4-yl)sulfonyl)benzamide]
> 1 µM	< 10 nM	< 10 nM	< 10 nM	< 0.5 nM		COc1ccc(CN2CCN(C3CC4(CCN(c5ccc(C(=O)NS(=O)(=O)c6cc([N+](=O)[O-])c(NCC7CCOCC7)c7c6OCO7)c(Oc6cnc7[nH]ccc7c6)c5)CC4)C3)[C@H](c3ccccc3C(C)C)C2)cc1 [compound 145, (R)-2-((1H-pyrrolo[2,3-b]pyrid-5-yl)oxy)-4-(2-(2-(2-isopropylphenyl)-4-(4-methoxybenzyl)piperazin-1-yl)-7-azaspiro[3.5]non-7-yl)-N-((6-nitro-7-(((tetrahydro-2H-pyran-4-yl)methyl)amino)benzo[d][1,3]dioxocyclopent-4-yl)sulfonyl)benzamide]
2.7 µM	< 10 nM	< 10 nM	< 10 nM	0.5 to 1 nM		COc1ccc(CN2CCN(C3CC4(CCN(c5ccc(C(=O)NS(=O)(=O)c6cc([N+](=O)[O-])c(NCC7CCOCC7)c7c6OCCO7)c(Oc6cnc7[nH]ccc7c6)c5)CC4)C3)[C@H](c3ccccc3C(C)C)C2)cc1 [compound 146, (R)-2-((1H-pyrrolo[2,3-b]pyrid-5-yl)oxy)-4-(2-(2-(2-isopropylphenyl)-4-(4-methoxybenzyl)piperazin-1-yl)-7-azaspiro[3.5]non-7-yl)-N-((7-nitro-8-(((tetrahydro-2H-pyran-4-yl)methyl)amino)-2,3-dihydrobenzo[b][1,4]dioxan-5-yl)sulfonyl)benzamide]
	< 10 nM	< 10 nM	< 10 nM	0.5 to 1 nM	> 0.5 µM	COc1ccc(CN2CCN(C3CC4(CCN(c5cc(Oc6cnc7[nH]cc(F)c7c6)c(C(=O)NS(=O)(=O)c6ccc(NCC7CCOCC7)c([N+](=O)[O-])c6)cc5F)CC4)C3)[C@H](c3ccccc3C(C)C)C2)cc1 [compound 240, (R)-5-fluoro-2-((3-fluoro-1H-pyrrolo[2,3-b]pyrid-5-yl)oxy)-4-(2-(2-(2-isopropylphenyl)-4-(4-methoxybenzyl)piperazin-1-yl)-7-azaspiro[3.5]non-7-yl)-N-((3-nitro-4-(((tetrahydro-2H-pyran-4-yl)methyl)amino)phenyl)sulfonyl)benzamide]
